Several values for one entry are separate records, joined by “and”; a condition that tells them apart may be missing. Equal entries are not always repeated.
Experiments:
Type in all cases: cell-based
320 non-olfactory GPCRs [1] = molecular target: T1, 320 non-olfactory GPCRs (Homo sapiens, UniProt Q8NFJ6); conditions: receptor PK2; replicate values, Fig_4g
T1 construct: expressed in transfected cells; host or cells: HTLA cells

320 non-olfactory GPCRs [2] = molecular target: T2, 320 non-olfactory GPCRs (Homo sapiens, UniProt P34995); conditions: receptor PTGER1; replicate values, Fig_4g
T2 construct: expressed in transfected cells; host or cells: HTLA cells

320 non-olfactory GPCRs [3] = molecular target: T3, 320 non-olfactory GPCRs (Homo sapiens, UniProt O00254)
T3 construct: expressed in transfected cells; host or cells: HTLA cells

320 non-olfactory GPCRs [4] = molecular target: 320 non-olfactory GPCRs (Homo sapiens, UniProt P25090)
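Wherever Fold of Basal is given: compound tested at 1 µM final concentration.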
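Wherever GPCRome agonism screen response is given: fold over basal response of each receptor without drug.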

T2 sequence (P34995 whole entry): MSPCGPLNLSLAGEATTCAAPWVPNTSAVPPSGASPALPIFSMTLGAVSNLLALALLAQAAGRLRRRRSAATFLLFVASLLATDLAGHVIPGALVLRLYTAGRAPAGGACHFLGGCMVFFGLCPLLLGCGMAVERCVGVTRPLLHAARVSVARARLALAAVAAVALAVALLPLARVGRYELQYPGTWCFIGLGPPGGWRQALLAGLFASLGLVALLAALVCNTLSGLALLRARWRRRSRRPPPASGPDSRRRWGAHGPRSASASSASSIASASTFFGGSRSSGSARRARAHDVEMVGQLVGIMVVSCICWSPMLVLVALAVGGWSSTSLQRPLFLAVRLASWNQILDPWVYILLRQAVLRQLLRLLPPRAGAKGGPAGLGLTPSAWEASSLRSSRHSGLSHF
T3 sequence (O00254 22-374): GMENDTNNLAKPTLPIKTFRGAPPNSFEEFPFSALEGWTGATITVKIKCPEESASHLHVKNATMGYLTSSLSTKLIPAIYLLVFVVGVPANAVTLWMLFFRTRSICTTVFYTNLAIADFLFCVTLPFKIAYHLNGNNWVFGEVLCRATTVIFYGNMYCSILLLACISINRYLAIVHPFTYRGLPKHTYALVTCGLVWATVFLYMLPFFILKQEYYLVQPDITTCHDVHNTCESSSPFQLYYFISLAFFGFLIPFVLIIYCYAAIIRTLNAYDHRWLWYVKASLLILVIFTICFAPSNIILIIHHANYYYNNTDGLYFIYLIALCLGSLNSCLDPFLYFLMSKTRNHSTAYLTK
T1 sequence (Q8NFJ6 whole entry): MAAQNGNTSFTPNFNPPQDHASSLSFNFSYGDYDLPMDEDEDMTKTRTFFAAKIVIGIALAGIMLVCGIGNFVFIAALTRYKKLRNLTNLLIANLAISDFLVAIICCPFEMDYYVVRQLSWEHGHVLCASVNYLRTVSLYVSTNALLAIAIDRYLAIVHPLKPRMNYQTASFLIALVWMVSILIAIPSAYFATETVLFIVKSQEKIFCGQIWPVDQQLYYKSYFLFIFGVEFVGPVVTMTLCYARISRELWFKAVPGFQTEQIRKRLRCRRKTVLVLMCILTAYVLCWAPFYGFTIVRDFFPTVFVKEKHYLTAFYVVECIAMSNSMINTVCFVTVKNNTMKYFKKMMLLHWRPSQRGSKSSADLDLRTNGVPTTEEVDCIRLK
Chain of 320 non-olfactory GPCRs (Homo sapiens, UniProt P25090) (P25090 whole entry): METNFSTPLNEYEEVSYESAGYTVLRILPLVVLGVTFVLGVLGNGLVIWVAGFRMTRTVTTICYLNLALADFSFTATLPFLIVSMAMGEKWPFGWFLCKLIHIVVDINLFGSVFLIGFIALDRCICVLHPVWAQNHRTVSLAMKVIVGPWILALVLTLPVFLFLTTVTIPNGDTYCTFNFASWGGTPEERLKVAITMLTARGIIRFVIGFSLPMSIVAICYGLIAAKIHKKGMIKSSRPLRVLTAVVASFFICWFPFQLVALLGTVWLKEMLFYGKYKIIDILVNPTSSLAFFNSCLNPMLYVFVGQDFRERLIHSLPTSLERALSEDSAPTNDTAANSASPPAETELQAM

CCOc1cccc2cc(C(C)NCC3(O)CCCCC3)oc12 (stereo not shown) [O4LE6]
GPCRome agonism screen response (320 non-olfactory GPCRs [1]): 0.6601 and 1.45 and 1.515 and 1.156
GPCRome agonism screen response (320 non-olfactory GPCRs [2]): 0.6283 and 0.5508 and 0.6804 and 0.7397
Fold of Basal (320 non-olfactory GPCRs [3]): 0.8171 and 1.363 and 1.064 and 0.8535
Fold of Basal (320 non-olfactory GPCRs [4]): 1.561 and 1.917 and 2.561 and 1.97
